US9403800B2, “Compounds for inhibition of cancer cell proliferation” (ChemRegen, Inc., priority 2012, dated 2016)

Legend:
[1] = tested on: Wnt transcriptional activity; test: cell-based Wnt-luciferase reporter assay (SuperTOPFlash); settings: for inhibition of Wnt transcriptional activity (in words): Wnt-luciferase reporter; for Relative potency for Wnt inhibition: relative to IWR-1, transfected HEK293A cells treated 12 hours, normalized to Renilla
Source text: “Hit” 1 (FIG. 1) was identified as a Wnt inhibitor in a high-throughput screen of a library of 74,000 compounds using a cell-based Wnt-luciferase reporter assay as a readout of Wnt transcriptional activity. […] Wnt transcriptional activity was monitored in HEK-293T cells using a luciferase-based Wnt reporter (SuperTOPFlash) stimulated by Wnt3a conditioned media.
Medicinal chemical refinement of “hit” 1 was undertaken to improve its potency, maintain non-toxicity, increase water solubility and improve bioavailability. The SAR refinement of functional activity of “hit” 1 on the inhibition of the Wnt pathway was determined using a cell-based Wnt-luciferase reporter assay (described above). with Renilla Luciferase was used as a normalization for transfection efficiency. 6-8 hours after transfection, transfected HEK293A cells were treated with 1 and each analog for 12 hours. Both firefly and renilla luciferase activities were measured using a plate reader. A library of compounds was tested to obtain an SAR for 1. Compound 1 and its analogs are synthesized by a two step synthesis, Scheme 1.
Signaling was tested using a standard luciferase response system for canonical Wnt/β-catenin/TCF signaling. Briefly, we used a cell line that had been transfected with a luciferase reporter gene under the control of the response element of a transcription factor that is activated by association with β-catenin and is the target of canonical Wnt signaling.

[2] = chemical stability by HPLC; format: physicochemical; settings: determined by HPLC
Source text: As observed from the data presented in Table 1, both free bases and salts gave significant Wnt inhibition potency. On the basis of the lipophilic character of many of the analogs, it is likely interaction site on the molecular target has a lipophilic character although polar interactions are apparent. To increase solubility, were possible, hydrochloride salts of the sulfonamides were synthesized. To afford appropriate bioavailability, sulfonamides were synthesized with chemical and metabolic stability in mind.

[3] = pharmacokinetics in rats; settings: rat, in vivo
[4] = tested on: canonical Wnt target genes, Cyclin D1 (CCND1), Axin2 (AXIN2), and c-Myc (c-MYC); test: mRNA levels of canonical Wnt target genes in HEK293T and SW480 cells; format: cell-based; settings: HEK293T and SW480 colorectal cells
[5] = tested on: SW480 colorectal cancer model cell line; test: SW480 cell proliferation and cell cycle (InCell 1000); format: cell-based, human
Source text: Previous studies have shown that the Wnt signaling pathway drives cellular proliferation of a number of cancers through up-regulation of genes for several proteins crucial for cell division including Cyclin D1, c-Myc, etc. and treatment of cancer cells with 1 or analogs decreases cellular proliferation. Accordingly, we examined the effect of 1 and analogs on cell proliferation of human cancer cell lines. […] The results were confirmed by studying the effects of 1 on SW480 human colon cell cycle determined by cell images captured by InCell 1000.

SMILES | Relative potency for Wnt inhibition [1] | further results
O=C1CCCN1c1ccc(S(=O)(=O)N2CCCC3CCCCC32)cc1 (stereo not shown) [Compound 3, 1-(4-(octahydroquinolin-1(2H)-ylsulfonyl)phenyl)pyrrolidin-2-one] | – | inhibition of Wnt transcriptional activity (in words) [1]: potent inhibition of Wnt
O=C1CCCN1c1ccc(S(=O)(=O)N2CCCc3cc(Cl)ccc32)cc1 [Compound 5, 1-(4-(6-chloro-3,4-dihydroquinolin-1(2H)-ylsulfonyl)phenyl)pyrrolidin-2-one] | ++++ (between 60 to 80% potency compared to IWR-1) | –
O=C1CCCN1c1ccc(S(=O)(=O)N2CCCc3cc(F)ccc32)cc1 [Compound 6, 1-(4-(6-fluoro-3,4-dihydroquinolin-1(2H)-ylsulfonyl)phenyl)pyrrolidin-2-one] | +++ (between 40 to 60% potency compared to IWR-1) | chemical half life [2]: No change
COc1ccc2c(c1)CCCN2S(=O)(=O)c1ccc(N2CCCC2=O)cc1 [Compound 7, 1-(4-(6-methoxy-3,4-dihydroquinolin-1(2H)-ylsulfonyl)phenyl)pyrrolidin-2-one] | ++++ (between 60 to 80% potency compared to IWR-1) | half-life [2]: 37 h
O=C1CCCN1c1ccc(S(=O)(=O)N2CCCc3cc(C(F)(F)F)ccc32)cc1 [Compound 8, 1-(4-(6-(trifluoromethyl)-3,4-dihydroquinolin-1(2H)-ylsulfonyl)phenyl)-pyrrolidin-2-one] | +++ (between 40 to 60% potency compared to IWR-1) | –
CC(C)(C)c1ccc2c(c1)CCCN2S(=O)(=O)c1ccc(N2CCCC2=O)cc1 [Compound 9, 1-(4-(6-tert-butyl-3,4-dihydroquinolin-1(2H)-ylsulfonyl)phenyl)pyrrolidin-2-one] | + (<20% potency compared to compound IWR-1) | –
Cc1ccc2c(c1)N(S(=O)(=O)c1ccc(N3CCCC3=O)cc1)CCC2 [Compound 11, 1-(4-(7-methyl-3,4-dihydroquinolin-1(2H)-ylsulfonyl)phenyl)pyrrolidin-2-one] | ++++ (between 60 to 80% potency compared to IWR-1) | –
O=C1CCCN1c1ccc(S(=O)(=O)N2CCc3ccccc3C2)cc1 [Compound 12, 1-(4-(3,4-dihydroisoquinolin-2(1H)-ylsulfonyl)phenyl)pyrrolidin-2-one] | ++++ (between 60 to 80% potency compared to IWR-1) | –
Cc1ccc2c(c1)CCN(S(=O)(=O)c1ccc(N3CCCC3=O)cc1)C2 [Compound 13, 1-(4-(6-methyl-3,4-dihydroisoquinolin-2(1H)-ylsulfonyl)phenyl)pyrrolidin-2-one] | + (<20% potency compared to compound IWR-1) | –
Cc1ccc2c(c1)CN(S(=O)(=O)c1ccc(N3CCCC3=O)cc1)CC2 [Compound 14, 1-(4-(7-methyl-3,4-dihydroisoquinolin-2(1H)-ylsulfonyl)phenyl)pyrrolidin-2-one] | +++ (between 40 to 60% potency compared to IWR-1) | –
O=C1CCCN1c1ccc(S(=O)(=O)Nc2ccccc2)cc1 [Compound 17, 4-(2-oxopyrrolidin-1-yl)-N-phenylbenzenesulfonamide] | + (<20% potency compared to compound IWR-1) | –
COc1ccccc1NS(=O)(=O)c1ccc(N2CCCC2=O)cc1 [Compound 18, N-(2-methoxyphenyl)-4-(2-oxopyrrolidin-1-yl)benzenesulfonamide] | + (<20% potency compared to compound IWR-1) | –
O=C1CCCN1c1ccc(S(=O)(=O)Nc2ccccc2OC(F)(F)F)cc1 [Compound 19, 4-(2-oxopyrrolidin-1-yl)-N-(2-(trifluoromethoxy)phenyl)benzenesulfonamide] | + (<20% potency compared to compound IWR-1) | –
O=C1CCCN1c1ccc(S(=O)(=O)Nc2cccc3ccccc23)cc1 [Compound 20, N-(naphthalen-1-yl)-4-(2-oxopyrrolidin-1-yl)benzenesulfonamide] | + (<20% potency compared to compound IWR-1) | –
O=C1CCCN1c1ccc(S(=O)(=O)N2CCCCC2)cc1 [Compound 21, 1-(4-(piperidin-1-ylsulfonyl)phenyl)pyrrolidin-2-one] | + (<20% potency compared to compound IWR-1) | –
CCC1CCCCN1S(=O)(=O)c1ccc(N2CCCC2=O)cc1 (stereo not shown) [Compound 22, 1-(4-(2-ethylpiperidin-1-ylsulfonyl)phenyl)pyrrolidin-2-one] | + (<20% potency compared to compound IWR-1) | –
CCCN(c1ccccc1)S(=O)(=O)c1ccc(N2CCCC2=O)cc1 [Compound 23, 4-(2-oxopyrrolidin-1-yl)-N-phenyl-N-propylbenzenesulfonamide] | + (<20% potency compared to compound IWR-1) | –
CCCCN(c1ccccc1)S(=O)(=O)c1ccc(N2CCCC2=O)cc1 [Compound 24, N-butyl-4-(2-oxopyrrolidin-1-yl)-N-phenylbenzenesulfonamide] | + (<20% potency compared to compound IWR-1) | –
O=C1CCCCN1c1ccc(S(=O)(=O)N2CCCc3ccccc32)cc1 [Compound 25, 1-(4-(3,4-dihydroquinolin-1(2H)-ylsulfonyl)phenyl)piperidin-2-one] | + (<20% potency compared to compound IWR-1) | inhibition of Wnt transcriptional activity (in words) [1]: did not inhibit Wnt transcriptional activity
CC(=O)N(C)c1ccc(S(=O)(=O)N2CCCc3ccccc32)cc1 [Compound 26, N-(4-(3,4-dihydroquinolin-1(2H)-ylsulfonyl)phenyl)-N-methylacetamide] | + (<20% potency compared to compound IWR-1) | –
COC1CCN(c2ccc(S(=O)(=O)N3CCN(C)c4ccccc43)cc2)C1=O (stereo not shown) [Compound 27, 3-methoxy-1-(4-(4-methyl-3,4-dihydroquinoxalin-1(2H)-ylsulfonyl)phenyl)-pyrrolidin-2-one] | + (<20% potency compared to compound IWR-1) | –
CN1CCN(S(=O)(=O)c2ccc(N3CCC(O)C3=O)cc2)c2ccccc21 (stereo not shown) [Compound 28, 3-hydroxy-1-(4-(4-methyl-3,4-dihydroquinoxalin-1(2H)-ylsulfonyl)phenyl)-pyrrolidin-2-one] | +++ (between 40 to 60% potency compared to IWR-1) | –
CN1CCN(S(=O)(=O)c2ccc(N3CCCC3)cc2)c2ccccc21 [Compound 31, 1-methyl-4-(4-(pyrrolidin-1-yl)phenylsulfonyl)-1,2,3,4-tetrahydroquinoxaline] | ++++ (between 60 to 80% potency compared to IWR-1) | bioavailability [3]: 11%
CN1CCN(S(=O)(=O)c2ccc(N3CCC=N3)cc2)c2ccccc21 [Compound 32, 1-(4-(4,5-dihydro-1H-pyrazol-1-yl)phenylsulfonyl)-4-methyl-1,2,3,4-tetrahydroquinoxaline] | ++++ (between 60 to 80% potency compared to IWR-1) | –
CN1CCN(S(=O)(=O)c2ccc(-n3cccn3)cc2)c2ccccc21 [Compound 33, 1-(4-(1H-pyrazol-1-yl)phenylsulfonyl)-4-methyl-1,2,3,4-tetrahydroquinoxaline] | + (<20% potency compared to compound IWR-1) | –
CN1CCN(S(=O)(=O)c2ccc(N3CCC(O)C3)cc2)c2ccccc21 (stereo not shown) [Compound 34, 1-(4-(4-methyl-3,4-dihydroquinoxalin-1(2H)-ylsulfonyl)phenyl)pyrrolidin-3-ol] | +++ (between 40 to 60% potency compared to IWR-1) | –
CC(=O)c1ccc(NN=C(C(N)=O)C2=NC(C)(C)Cc3ccccc32)cc1 [IQ-1] | – | mRNA levels of canonical Wnt target genes CCND1, AXIN2, c-MYC [4]: enhanced mRNA expression
O=C(Nc1cccc2cccnc12)c1ccc(N2C(=O)[C@@H]3[C@H](C2=O)[C@@H]2C=C[C@H]3C2)cc1 [IWR-1, reference compound] | – | mRNA levels of canonical Wnt target genes CCND1, AXIN2, c-MYC [4]: decreased mRNA expression; cell cycle distribution ([5]; SW480 cells, InCell 1000 images): did not alter either the rate of SW480 cell proliferation or cell cycle; cancer cell proliferation (in words) ([5]; SW480 colon cancer cell line): did not alter either the rate of SW480 cell proliferation or cell cycle
